Like-named read-outs stand apart in the source and are kept apart here.
Assays:
[1] = test system: Key Broadleaf Weed and Crop Species; assay: Post-Emergent Test II: postemergent herbicidal activity, visual rating after 14 d (Table 7); format: in vivo; conditions: post-emergence, 336 h; for pest or weed control at 35 g/ha: 35 g ai/ha; for pest or weed control at 70 g/ha: 70 g ai/ha; for pest or weed control at 140 g/ha: 140 g ai/ha
Method in brief: (§1)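 Greenhouse plants at first or second true leaf stage sprayed with compound in acetone/DMSO-based spray solution with crop oil concentrate and Triton X-155 at 187 L/ha, tested at highest rate and ½× to 1/16× dilutions; solvent blank controls. Injury rated visually 0–100% versus untreated plants after 14 d.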

[2] = test system: Key Grass and Sedge Weeds as well as Grass Crops; assay: Post-Emergent Test II: postemergent herbicidal activity, visual rating after 14 d (Table 8); format: in vivo; conditions: post-emergence, 336 h; for pest or weed control at 35 g/ha: 35 g ai/ha; for pest or weed control at 70 g/ha: 70 g ai/ha; for pest or weed control at 140 g/ha: 140 g ai/ha
Method in brief: as §1

[3] = lambsquarters (Chenopodium album), read-out: Visual Growth Reduction (%) 14 Days After Application CHEAL
[4] = oilseed rape, canola (Brassica napus), read-out: Visual Growth Reduction (%) 14 Days After Application BRSNN
[5] = redroot pigweed (Amaranthus retroflexus), read-out: Visual Growth Reduction (%) 14 Days After Application AMARE
[6] = sunflower (Helianthus annuus), read-out: Visual Growth Reduction (%) 14 Days After Application HELAN
[7] = velvetleaf (Abutilon theophrasti), read-out: Visual Growth Reduction (%) 14 Days After Application ABUTH
[8] = wild poinsettia (Euphorbia heterophylla), read-out: Visual Growth Reduction (%) 14 Days After Application EPHHL
[9] = barnyardgrass (Echinochloa crus-galli), read-out: Visual Growth Reduction (%) 14 Days After Application ECHCG
[10] = giant foxtail (Setaria faberi), read-out: Visual Growth Reduction (%) 14 Days After Application SETFA
[11] = maize, corn (Zea mays), read-out: Visual Growth Reduction (%) 14 Days After Application ZEAMX
[12] = rice (Oryza sativa), read-out: Visual Growth Reduction (%) 14 Days After Application ORYSA
[13] = wheat, spring (Triticum aestivum), read-out: Visual Growth Reduction (%) 14 Days After Application TRZAS
[14] = yellow nutsedge (Cyperus esculentus), read-out: Visual Growth Reduction (%) 14 Days After Application CYPES

| SMILES | pest or weed control at 35 g/ha [1, 3] | pest or weed control at 70 g/ha [1, 3] | pest or weed control at 140 g/ha [1, 3] | pest or weed control at 35 g/ha [1, 4] | pest or weed control at 70 g/ha [1, 4] | pest or weed control at 140 g/ha [1, 4] | pest or weed control at 35 g/ha [1, 5] | pest or weed control at 70 g/ha [1, 5] | pest or weed control at 140 g/ha [1, 5] | pest or weed control at 35 g/ha [1, 6] | pest or weed control at 70 g/ha [1, 6] | pest or weed control at 140 g/ha [1, 6] | pest or weed control at 35 g/ha [1, 7] | pest or weed control at 70 g/ha [1, 7] | pest or weed control at 140 g/ha [1, 7] | pest or weed control at 35 g/ha [1, 8] | pest or weed control at 70 g/ha [1, 8] | pest or weed control at 140 g/ha [1, 8] | pest or weed control at 70 g/ha [2, 9] | pest or weed control at 140 g/ha [2, 9] | other results |
| --- | --- | --- | --- | --- | --- | --- | --- | --- | --- | --- | --- | --- | --- | --- | --- | --- | --- | --- | --- | --- | --- |
| COC(=O)c1nc(-c2ccc3c(c2)OC(F)(F)O3)nc(N)c1OC [Compound 62] | 0 to 29% | 0 to 29% | 0 to 29% | 45 to 59% | 45 to 59% | 60 to 74% | 0 to 29% | 0 to 29% | 0 to 29% | 85 to 94% | 75 to 84% | 95 to 100% | 45 to 59% | 85 to 94% | 85 to 94% | 95 to 100% | 95 to 100% | 95 to 100% | 85 to 94% | 95 to 100% | pest or weed control at 35 g/ha [2, 9]: 85 to 94%; pest or weed control at 35 g/ha [2, 10]: 0 to 29%; pest or weed control at 70 g/ha [2, 10]: 30 to 44%; pest or weed control at 140 g/ha [2, 10]: 60 to 74%; pest or weed control at 35 g/ha [2, 11]: 95 to 100%; pest or weed control at 70 g/ha [2, 11]: 95 to 100%; pest or weed control at 140 g/ha [2, 11]: 95 to 100%; pest or weed control at 35 g/ha [2, 12]: 0 to 29%; pest or weed control at 70 g/ha [2, 12]: 0 to 29%; pest or weed control at 140 g/ha [2, 12]: 0 to 29%; pest or weed control at 35 g/ha [2, 13]: 0 to 29%; pest or weed control at 70 g/ha [2, 13]: 0 to 29%; pest or weed control at 140 g/ha [2, 13]: 0 to 29%; pest or weed control at 35 g/ha [2, 14]: 95 to 100%; pest or weed control at 70 g/ha [2, 14]: 95 to 100%; pest or weed control at 140 g/ha [2, 14]: 95 to 100% |
| COc1c(N)nc(-c2ccc3c(c2)OC(F)(F)O3)nc1C(=O)O [Compound 63] | 0 to 29% | 0 to 29% | 0 to 29% | 60 to 74% | 75 to 84% | 75 to 84% | 0 to 29% | 30 to 44% | 60 to 74% | 85 to 94% | 85 to 94% | 85 to 94% | 85 to 94% | 60 to 74% | 85 to 94% | 95 to 100% | 95 to 100% | 95 to 100% | 95 to 100% | 95 to 100% | pest or weed control at 35 g/ha [2, 10]: 75 to 84%; pest or weed control at 70 g/ha [2, 10]: 95 to 100%; pest or weed control at 140 g/ha [2, 10]: 95 to 100%; pest or weed control at 35 g/ha [2, 11]: 95 to 100%; pest or weed control at 70 g/ha [2, 11]: 95 to 100%; pest or weed control at 140 g/ha [2, 11]: 95 to 100%; pest or weed control at 35 g/ha [2, 12]: 0 to 29%; pest or weed control at 70 g/ha [2, 12]: 0 to 29%; pest or weed control at 140 g/ha [2, 12]: 0 to 29%; pest or weed control at 35 g/ha [2, 13]: 45 to 59%; pest or weed control at 70 g/ha [2, 13]: 45 to 59%; pest or weed control at 140 g/ha [2, 13]: 45 to 59%; pest or weed control at 35 g/ha [2, 14]: 95 to 100%; pest or weed control at 70 g/ha [2, 14]: 95 to 100%; pest or weed control at 140 g/ha [2, 14]: 95 to 100% |
| COC(=O)c1nc(-c2cc3c(cc2F)OC(F)(F)O3)nc(N)c1OC [Compound 64] | 0 to 29% | 0 to 29% | 0 to 29% | 0 to 29% | 0 to 29% | 0 to 29% | 0 to 29% | 0 to 29% | 0 to 29% | 0 to 29% | 60 to 74% | 75 to 84% | 0 to 29% | 0 to 29% | 0 to 29% | 75 to 84% | 85 to 94% | 95 to 100% | 45 to 59% | 75 to 84% | pest or weed control at 35 g/ha [2, 9]: 0 to 29%; pest or weed control at 35 g/ha [2, 10]: 0 to 29%; pest or weed control at 70 g/ha [2, 10]: 45 to 59%; pest or weed control at 140 g/ha [2, 10]: 75 to 84%; pest or weed control at 35 g/ha [2, 11]: 30 to 44%; pest or weed control at 70 g/ha [2, 11]: 45 to 59%; pest or weed control at 140 g/ha [2, 11]: 75 to 84%; pest or weed control at 35 g/ha [2, 12]: 0 to 29%; pest or weed control at 70 g/ha [2, 12]: 0 to 29%; pest or weed control at 140 g/ha [2, 12]: 0 to 29%; pest or weed control at 35 g/ha [2, 13]: 0 to 29%; pest or weed control at 70 g/ha [2, 13]: 30 to 44%; pest or weed control at 140 g/ha [2, 13]: 30 to 44%; pest or weed control at 35 g/ha [2, 14]: 30 to 44%; pest or weed control at 70 g/ha [2, 14]: 60 to 74%; pest or weed control at 140 g/ha [2, 14]: 85 to 94% |
| COc1c(N)nc(-c2ccc3c(c2F)OC(F)(F)O3)nc1C(=O)O [Compound 66] | 45 to 59% | 85 to 94% | 95 to 100% | 60 to 74% | 75 to 84% | 85 to 94% | 95 to 100% | 95 to 100% | 95 to 100% | 75 to 84% | 85 to 94% | 95 to 100% | 75 to 84% | 75 to 84% | 85 to 94% | 95 to 100% | 95 to 100% | 95 to 100% | 95 to 100% | 95 to 100% | pest or weed control at 35 g/ha [2, 9]: 95 to 100%; pest or weed control at 35 g/ha [2, 10]: 75 to 84%; pest or weed control at 70 g/ha [2, 10]: 75 to 84%; pest or weed control at 140 g/ha [2, 10]: 85 to 94%; pest or weed control at 35 g/ha [2, 11]: 60 to 74%; pest or weed control at 70 g/ha [2, 11]: 60 to 74%; pest or weed control at 140 g/ha [2, 11]: 75 to 84%; pest or weed control at 35 g/ha [2, 12]: 30 to 44%; pest or weed control at 70 g/ha [2, 12]: 30 to 44%; pest or weed control at 140 g/ha [2, 12]: 30 to 44%; pest or weed control at 35 g/ha [2, 13]: 45 to 59%; pest or weed control at 70 g/ha [2, 13]: 60 to 74%; pest or weed control at 140 g/ha [2, 13]: 60 to 74%; pest or weed control at 35 g/ha [2, 14]: 0 to 29%; pest or weed control at 70 g/ha [2, 14]: 95 to 100%; pest or weed control at 140 g/ha [2, 14]: 95 to 100% |
